Experimental data: patent US9073853B2, “Cycloalkane carboxylic acid derivatives as CXCR3 receptor antagonists” (Sanofi, priority 2011, dated 2015)

target: human CXCR3-A receptor (Homo sapiens (Human), UniProt P49682); assay: 125I-CXCL10 competition radioligand binding assay; settings: displacement of 125I-CXCL10 from membranes of CHO cells expressing human recombinant CXCR3-A
Description: IC50 values were determined for the test compounds and used to explore the structure-activity relationships (SAR). […] This cell line was registered in Sanofi-Aventis cell line bank. […] Cell suspension was diluted with PBS and cells were collected with centrifugation at 230 g for 10 minutes at 10° C. with a Juan centrifuge. […] The supernatant was carefully collected and centrifuged at 100,000×g for 60 min at 4° with a Beckman Avanti J30 centrifuge. […] Protein concentration was determined with Bio-Rad protein assay (Cat No 500-0006). Membrane aliquots were stored at -80° C. […] The composition of the binding assay buffer was determined in a course of detailed optimization procedure. […] Binding reaction was initiated by adding of membranes (10-20 μg proteins, approximately 5×10^5 cell equivalents) to the reaction mixture. After 60 minutes of incubation at 25° C. the reaction was terminated by rapid filtration over GF/B glass fiber filters that were pre-soaked with 0.5% polyethyleneimine (Fluka Analytical, P3143) for 1 hour, using a Skatron cell harvester device. Filters then were washed with 8 ml of ice-cold wash buffer (modified binding buffer in which BSA was omitted and the concentration of NaCl was adjusted to 500 mM concentration). The radioactivity retained on the filters was measured by a Wizard 1470 Automatic Gamma counter. Test compounds were dissolved prior to the binding assay at a concentration of 10 mM in DMSO. Stock solutions were stored at -20° C. for not longer than 3 months. […] Before adding these solutions of test compound to the binding reaction mixture, an intermediate dilution procedure was applied, in which 30 μL of each solution sample was transferred into a dilution tube containing 970 μL of binding assay buffer. […] The IC50 values and Hill slopes for competition binding data were obtained using nonlinear four-parametric curve fitting method.

Chain of human CXCR3-A receptor (P49682 whole entry): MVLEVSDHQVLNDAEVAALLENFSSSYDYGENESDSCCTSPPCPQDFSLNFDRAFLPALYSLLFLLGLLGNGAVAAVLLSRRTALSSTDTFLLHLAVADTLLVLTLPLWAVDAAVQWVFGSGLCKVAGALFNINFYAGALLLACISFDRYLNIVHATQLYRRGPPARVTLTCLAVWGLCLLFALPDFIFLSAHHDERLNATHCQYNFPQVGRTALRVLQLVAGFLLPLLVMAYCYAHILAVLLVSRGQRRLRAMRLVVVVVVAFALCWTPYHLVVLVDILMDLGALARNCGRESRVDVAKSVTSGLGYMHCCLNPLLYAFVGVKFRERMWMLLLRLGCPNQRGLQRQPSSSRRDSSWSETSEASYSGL

Row | SMILES | IC50 [nM]
1 | Cc1cc(CN(C[C@H]2CC[C@H](C(=O)O)CC2)C2CCc3cc(Cl)ccc32)ccc1OCCN1C(=O)CCC1=O (stereo partly drawn) [Example 29, trans-4-[((5-Chloro-indan-1-yl)-{4-[2-(2,5-dioxo-pyrrolidin-1-yl)-ethoxy]-3-methyl-benzyl}-amino)-methyl]-cyclohexanecarboxylic acid] | 150
2 | Cc1cc(CN(C[C@H]2CC[C@H](C(=O)O)CC2)[C@@H]2CCc3cc(Cl)ccc32)ccc1OCCN1C(=O)CCC1=O [Example 31, trans-4-[(((R)-5-Chloro-indan-1-yl)-{4-[2-(2,5-dioxo-pyrrolidin-1-yl)-ethoxy]-3-methyl-benzyl}-amino)-methyl]-cyclohexanecarboxylic acid] | 360
3 | COc1cc(CN(C[C@H]2CC[C@H](C(=O)O)CC2)C(C)c2ccc3c(c2)CCO3)ccc1/C=C/CN1C(=O)CCC1=O (stereo partly drawn) [Example 35, trans-4-[([1-(2,3-Dihydro-benzofuran-5-yl)-ethyl]-{4-[(E)-3-(2,5-dioxo-pyrrolidin-1-yl)-propenyl]-3-methoxy-benzyl}-amino)-methyl]-cyclohexanecarboxylic acid] | 1430
4 | COc1cc(CN(C[C@H]2CC[C@H](C(=O)O)CC2)C(C)c2ccc3c(c2)CCO3)ccc1OCCN1C(=O)CCCC1=O (stereo partly drawn) [Example 38, trans-4-[([1-(2,3-Dihydro-benzofuran-5-yl)-ethyl]-{4-[2-(2,6-dioxo-piperidin-1-yl)-ethoxy]-3-methoxy-benzyl}-amino)-methyl]-cyclohexanecarboxylic acid] | 163
5 | COc1cc(CN(CC2CCCC(C(=O)O)C2)C(C)c2ccc3c(c2)CCO3)ccc1OCCN1C(=O)CCC1=O (centres unmarked) [Example 41, 3-[([1-(2,3-Dihydro-benzofuran-5-yl)-ethyl]-{4-[2-(2,5-dioxo-pyrrolidin-1-yl)-ethoxy]-3-methoxy-benzyl}-amino)-methyl]-cyclohexanecarboxylic acid] | 131
6 | COc1cc(CN(C[C@H]2CC[C@H](C(=O)O)CC2)C2CCc3cc(Cl)ccc32)ccc1CCCN1C(=O)CCC1=O (stereo partly drawn) [Example 44, trans-4-[((5-Chloro-indan-1-yl)-{4-[3-(2,5-dioxo-pyrrolidin-1-yl)-propyl]-3-methoxy-benzyl}-amino)-methyl]-cyclohexanecarboxylic acid] | 410
7 | CC(c1ccc2c(c1)CCO2)N(Cc1ccc(CCCN2C(=O)CCC2=O)c(Cl)c1)C[C@H]1CC[C@H](C(=O)O)CC1 (stereo partly drawn) [Example 47, trans-4-({{3-Chloro-4-[3-(2,5-dioxo-pyrrolidin-1-yl)-propyl]-benzyl}-[1-(2,3-dihydro-benzofuran-5-yl)-ethyl]-amino}-methyl)-cyclohexanecarboxylic acid] | 800
8 | COc1cc(CN(C[C@H]2CC[C@H](C(=O)O)CC2)C2CCc3cc(Cl)ccc32)ccc1OCCn1c(=O)ccn(C)c1=O (stereo partly drawn) [Example 48, trans-4-[((5-Chloro-indan-1-yl)-{3-methoxy-4-[2-(3-methyl-2,6-dioxo-3,6-dihydro-2H-pyrimidin-1-yl)-ethoxy]-benzyl}-amino)-methyl]-cyclohexanecarboxylic acid] | 409
9 | COc1cc(CN(C[C@H]2CC[C@H](C(=O)O)CC2)C(C)c2ccc3c(c2)CCO3)ccc1C1CC1CN1C(=O)CCC1=O (stereo partly drawn) [Example 49, trans-4-[([1-(2,3-Dihydro-benzofuran-5-yl)-ethyl]-{4-[2-(2,5-dioxo-pyrrolidin-1-ylmethyl)-cyclopropyl]-3-methoxy-benzyl}-amino)-methyl]-cyclohexanecarboxylic acid] | 746
10 | COc1cc(CN(C[C@H]2CC[C@H](C(=O)O)CC2)C2CCc3cc(Cl)ccc32)ccc1CCCN1C(=O)CN(C)C1=O (stereo partly drawn) [Example 50, trans-4-[((5-Chloro-indan-1-yl)-{3-methoxy-4-[3-(3-methyl-2,5-dioxo-imidazolidin-1-yl)-propyl]-benzyl}-amino)-methyl]-cyclohexanecarboxylic acid] | 1240
11 | COc1cc(CN(C[C@H]2CC[C@H](C(=O)O)CC2)[C@@H](C)c2ccc(Cl)cc2)ccc1CCCN1C(=O)CN(C)C1=O [Example 51, trans-4-[([(S)-1-(4-Chloro-phenyl)-ethyl]-{3-methoxy-4-[3-(3-methyl-2,5-dioxo-imidazolidin-1-yl)-propyl]-benzyl}-amino)-methyl]-cyclohexanecarboxylic acid] | 157

Stronger by IC50, values ahead:

Row | IC50 [nM] | SMILES
12 | 123 | C[C@@H](c1ccc(Cl)cc1)N(Cc1ccc(OCCN2C(=O)CCC2=O)c(Cl)c1)C[C@H]1CC[C@H](C(=O)O)CC1 [Example 32, trans-4-({{3-Chloro-4-[2-(2,5-dioxo-pyrrolidin-1-yl)-ethoxy]-benzyl}-[(S)-1-(4-chloro-phenyl)-ethyl]-amino}-methyl)-cyclohexanecarboxylic acid]
13 | 99 | Cc1cc(CN(C[C@H]2CC[C@H](C(=O)O)CC2)[C@@H](C)c2ccc(Cl)cc2)ccc1OCCN1C(=O)CN(C)C1=O [Example 39, trans-4-[([(S)-1-(4-Chloro-phenyl)-ethyl]-{3-methyl-4-[2-(3-methyl-2,5-dioxo-imidazolidin-1-yl)-ethoxy]-benzyl}-amino)-methyl]-cyclohexanecarboxylic acid]
14 | 87 | COc1cc(CN(C[C@H]2CC[C@H](C(=O)O)CC2)C2CCc3cc(Cl)c(C)cc32)ccc1OCCN1C(=O)CCC1=O (stereo partly drawn) [Example 42, trans-4-[((5-Chloro-6-methyl-indan-1-yl)-{4-[2-(2,5-dioxo-pyrrolidin-1-yl)-ethoxy]-3-methoxy-benzyl}-amino)-methyl]-cyclohexanecarboxylic acid]
15 | 81 | CCC(c1ccc2c(c1)CCO2)N(Cc1ccc(OCCN2C(=O)CN(C)C2=O)c(OC)c1)C[C@H]1CC[C@H](C(=O)O)CC1 (stereo partly drawn) [Example 28, trans-4-[([1-(2,3-Dihydro-benzofuran-5-yl)-propyl]-{3-methoxy-4-[2-(3-methyl-2,5-dioxo-imidazolidin-1-yl)-ethoxy]-benzyl}-amino)-methyl]-cyclohexanecarboxylic acid]
16 | 80 | COc1cc(CN(C[C@H]2CC[C@H](C(=O)O)CC2)[C@H](C)c2ccc(Cl)c(C)c2)ccc1OCCN1C(=O)CCC1=O [Example 27, trans-4-[([(R)-1-(4-Chloro-3-methyl-phenyl)-ethyl]-{4-[2-(2,5-dioxo-pyrrolidin-1-yl)-ethoxy]-3-methoxy-benzyl}-amino)-methyl]-cyclohexanecarboxylic acid]
17 | 76 | COc1cc(CN(C[C@H]2CC[C@H](C(=O)O)CC2)[C@@H](C)c2ccc(Cl)cc2)ccc1OCCn1c(=O)ccn(C)c1=O [Example 37, trans-4-[([(S)-1-(4-Chloro-phenyl)-ethyl]-{3-methoxy-4-[2-(3-methyl-2,6-dioxo-3,6-dihydro-2H-pyrimidin-1-yl)-ethoxy]-benzyl}-amino)-methyl]-cyclohexanecarboxylic acid]
18 | 68 | COc1cc(CN(C[C@H]2CC[C@H](C(=O)O)CC2)C2CCc3c2ccc(Cl)c3C)ccc1OCCN1C(=O)CCC1=O (stereo partly drawn) [Example 43, trans-4-[((5-Chloro-4-methyl-indan-1-yl)-{4-[2-(2,5-dioxo-pyrrolidin-1-yl)-ethoxy]-3-methoxy-benzyl}-amino)-methyl]-cyclohexanecarboxylic acid]
19 | 64 | COc1cc(CN(C[C@H]2CC[C@H](C(=O)O)CC2)[C@@H](C)c2ccc(Cl)c(C)c2)ccc1OCCN1C(=O)CCC1=O [Example 26, trans-4-[([(S)-1-(4-Chloro-3-methyl-phenyl)-ethyl]-{4-[2-(2,5-dioxo-pyrrolidin-1-yl)-ethoxy]-3-methoxy-benzyl}-amino)-methyl]-cyclohexanecarboxylic acid]
20 | 53 | Cc1cc(CN(C[C@H]2CC[C@H](C(=O)O)CC2)[C@H]2CCc3cc(Cl)ccc32)ccc1OCCN1C(=O)CCC1=O [Example 30, trans-4-[(((S)-5-Chloro-indan-1-yl)-{4-[2-(2,5-dioxo-pyrrolidin-1-yl)-ethoxy]-3-methyl-benzyl}-amino)-methyl]-cyclohexanecarboxylic acid]
21 | 42 | Cc1cc(CN(C[C@H]2CC[C@H](C(=O)O)CC2)C(C)c2ccc3c(c2)CCO3)ccc1OCCN1C(=O)CSC1=O (stereo partly drawn) [Example 33, trans-4-[([1-(2,3-Dihydro-benzofuran-5-yl)-ethyl]-{4-[2-(2,4-dioxo-thiazolidin-3-yl)-ethoxy]-3-methyl-benzyl}-amino)-methyl]-cyclohexanecarboxylic acid]
22 | 28 | COc1cc(CN(C[C@H]2CC[C@H](C(=O)O)CC2)[C@@H](C)c2ccc(Cl)cc2)ccc1OCCN1C(=O)COC1=O [Example 36, trans-4-[([(S)-1-(4-Chloro-phenyl)-ethyl]-{4-[2-(2,4-dioxo-oxazolidin-3-yl)-ethoxy]-3-methoxy-benzyl}-amino)-methyl]-cyclohexanecarboxylic acid]
23 | 22 | COc1cc(CN(C[C@H]2CC[C@H](C(=O)O)CC2)[C@@H](C)c2ccc(Cl)cc2)ccc1OCCN1C(=O)CSC1=O [Example 34, trans-4-[([(S)-1-(4-Chloro-phenyl)-ethyl]-{4-[2-(2,4-dioxo-thiazolidin-3-yl)-ethoxy]-3-methoxy-benzyl}-amino)-methyl]-cyclohexanecarboxylic acid]
